# Experimental data from PMC5618429, “Kempopeptin C, a Novel Marine-Derived Serine Protease Inhibitor Targeting Invasive Breast Cancer” (Marine Drugs, 2017).
# Key:
# [1] = molecular target: T1, recombinant human matriptase (Homo sapiens, UniProt Q9Y5Y6); assay: In vitro cleavage of desmoglein-2 by matriptase (SDS-PAGE, silver stain, densitometry); assay type: biochemical; settings: 3 h; for Inhibition of in vitro cleavage of Dsg-2 by matriptase: enzyme to substrate ratio 1:5, pH 9.0, 37 °C, 10‒0.01 µM inhibitor, qualitative
# T1 construct: purchased R&D Systems 3946-SE-010
# T1 sequence (Q9Y5Y6 615-855 limits assumed): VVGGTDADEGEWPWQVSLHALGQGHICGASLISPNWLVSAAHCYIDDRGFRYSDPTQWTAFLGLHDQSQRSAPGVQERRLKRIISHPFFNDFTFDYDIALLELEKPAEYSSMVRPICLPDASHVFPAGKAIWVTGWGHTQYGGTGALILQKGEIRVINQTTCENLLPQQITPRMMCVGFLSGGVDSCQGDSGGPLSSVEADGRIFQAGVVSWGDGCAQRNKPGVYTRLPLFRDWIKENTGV
# Protocol: Figure 4 The effect of kempopeptin C (3) on the in vitro cleavage of CDCP1 and desmoglein-2 (Dsg-2) by matriptase. (A,B) Incubation of recombinant human CDCP1 with recombinant human matriptase (enzyme to substrate ratio 1:5) in 50 mM Tris, 50 mM NaCl, 0.01% Tween 20 (pH 9.0) at 37 °C for 30 min and 2 h in the presence and absence of different concentrations (10‒0.01 µM) of kempopeptin C (3). (C) Incubation of recombinant human Dsg-2 with recombinant human matriptase (enzyme to substrate ratio 1:5) in 50 mM Tris, 50 mM NaCl, 0.01% tween 20 (pH 9.0) at 37 °C for 3 h in the presence and absence of different concentrations (10‒0.01 µM) of kempopeptin C (3). Fragments were separated on SDS-PAGE under reducing conditions and silver stained. (D) Densitometric analysis of Dsg-2 bands in the SDS-PAGE in […].
# Among the earliest events in cancer metastasis is the loss of intracellular adhesion. Desmosomes are adhesive molecules localized at the cell membrane acting as an anchor for intermediate filaments in addition to being adhesive intracellular junctions. Desmogleins (Dsg 1‒4) and desmocollins (Dsc 1‒3), comprising the core of the desmosomal adhesive complex, are glycoproteins and members of the cadherin superfamily of proteins. Desmogleins have been reported to be aberrantly expressed in several cancers and substrates of several proteases. Dsg-2 is known to be a substrate of kallikrein 7 (KLK7) and harbors a cleavage site for matriptase. We therefore investigated the cleavage of Dsg-2 by matriptase in vitro and the ability of kempopeptin C (3) to inhibit or reduce this cleavage. Matriptase and Dsg-2 were incubated for 3 h at 37 °C in assay buffer (final molar ratio 1:5) in the presence of different concentrations of kempopeptin C (3) or solvent control (Figure 4C). The resulting protein fragments were separated by SDS-PAGE and subjected to silver staining. […] The incomplete cleavage of Dsg-2 by matriptase might be due to the relative affinity of kempopeptin C (3) to matriptase, such that it can block the cleavage of some low affinity bands, but have no effects on others. […]
# [2] = system: CDCP1 cleavage in MDA-MB-231 cells; assay: Cleavage of cellular CDCP1 in MDA-MB-231 supplemented with exogenous recombinant human matriptase; assay type: cell-based; settings: MDA-MB-231 + 10 nM recombinant human matriptase, 24 h, different concentrations
# Protocol: Figure 6 The effect of kempopeptins B and C (2 and 3) on CDCP1 cleavage in MDA-MB-231. (A) MDA-MB-231 cells were treated for 72 h with different concentrations of the test compounds. Following 72 h, the lysates were collected and analyzed by Western blot. (B) MDA-MB-231 cells were treated at different time points with 100 µM of kempopeptin C (3). Following 6 h, 12 h and 24 h, the lysates were collected and analyzed by Western blot. Dexamethasone (Dex) was used as a positive control. (C) MDA-MB-231 cells treated for 24 h with different concentrations of 3 in the presence of 10 nM recombinant human matriptase. Cell lysates were harvested and analyzed by Western blot. (D) Densitometric analysis of the full-length, LMW of CDCP1 and actin bands in (C).
# In this experiment, we aimed to investigate the ability of 3 to inhibit cell-expressed CDCP1 rather than the purified recombinant protein in vitro. In contrast to the well-controlled in vitro assay, several factors might influence the extracellular matriptase activity in the cell-based assay; for example, the occurrence of additional secreted cellular factors, differences in pH, in addition to the unknown enzyme:substrate:inhibitor ratio. […] Additionally, matriptase is one of at least two other proteases known to process CDCP1, where plasmin is the main protease cleaving CDCP1 in MDA-MB-231 cells. […]
smiles,measurement,setting,value
"CCCC(=O)NC(C(=O)NC1C(=O)NC(CCCCN)C(=O)NC2CCC(O)N(C2=O)C(C(C)CC)C(=O)N(C)C(Cc2ccc(OC)c(Cl)c2)C(=O)NC(C(C)C)C(=O)OC1C)C(C)C (centres unmarked) [Kempopeptin C, kempopeptin C]",Densitometry of full-length Dsg-2 (Band 1),"[1]; 37 °C, compared to lower concentrations of the inhibitor","higher intensity of the full-length Dsg-2 (Band 1) in the presence of 10, 1 and 0.1 µM"
same,Inhibition of in vitro cleavage of Dsg-2 by matriptase,[1],inhibit the cleavage
same,Inhibition of in vitro cleavage of Dsg-2 by matriptase,[1]; listed as Kempopeptin C (3),slight dose-dependent reduction in the cleavage of Dsg-2
same,Reduction of cleavage of cellular CDCP1 in presence of exogenous matriptase,[2],reduced the cleavage of CDCP1
same,Reduction of cleavage of cellular CDCP1 in presence of exogenous matriptase,[2]; listed as Kempopeptin C (3),slight dose-dependent reduction in the cleavage of the full-length form
